Laboratory results from patent US20120015925A1, “NOVEL BENZOTHIAZEPINE AND BENZOTHIEPINE COMPOUNDS” (ASAHI KASEI PHARMA CORPORATION, priority 2004, published 2012).

How the values were obtained:
[1] = test system: rats fed cholesterol food; experiment: Blood cholesterol lowering effect in rats fed cholesterol food; assay type: in vivo, rat; settings: oral, twice per day, SD (IGS) male rats, serum 3 hours after final administration
Method: In the present Test Example, a blood cholesterol lowering effect on rats fed cholesterol food was evaluated according to the method described in J. Lipid Res., 1995, 36, 1098-1105.
That is, the food containing 0.4% cholesterol and 0.5% bile acid was given to SD (IGS) strain male rats at 7 to 9 weeks of age for 5 days in advance of the test date, to increase blood cholesterol levels. The rats in which the blood cholesterol level had been obviously elevated from the level before loading the cholesterol food were selected as the subjects in the test. Colestimide (brand name: Cholebine 70% granules, supplied from Mitsubishi Tokyo Pharmaceutical Inc.) which is an anion exchange resin drug was suspended in distilled water, and the test compound was dissolved or suspended in distilled water. They were orally administered forcibly twice per day everyday from the starting date (each n=8). The blood was collected from jugular vein 3 hours after the drug administration on the final day of the experiment, and the cholesterol level in serum was measured to examine the effect of the test compound. As a control, another group (n=8) was merely fed cholesterol food, to which distilled water (1 mL/kg) was administered and the same procedure was applied. The total cholesterol value and the HDL cholesterol value were measured using commercially available kits. The value obtained by subtracting the HDL cholesterol value from the total cholesterol value was regarded as an LDL+VLDL cholesterol value.

[2] = test system: Wistar rats given choline-deficient food; experiment: Steatohepatitis model: AST and ALT in blood; assay type: in vivo, rat; settings: 3 mg/kg oral once a day for 2 weeks, n = 4, average ± standard error; for AST: control group (n = 6) 180 ± 46; for ALT: control group (n = 6) 245 ± 57
Source text: In the present Test Example, a steatohepatitis model was employed with reference to the method of Okan A et al. (Dig. Dis. Sci., 47:2389-2397, 2002).
That is, choline-deficient food (supplied from Oriental Yeast Co., Ltd.) was given to Wistar rats at 7 weeks of age for two weeks to prepare a steatohepatitis model. The test compound was suspended in an aqueous solution of 0.5% methylcellulose (supplied from Wako Pure Chemical Industries), and the aqueous solution of 0.5% methylcellulose (supplied from Wako Pure Chemical Industries) was used as the control. They were orally administered once a day for consecutive 2 weeks. The blood was collected from the abdominal aorta on the day after the final drug administration. AST (GOT) and ALT (GPT) in the blood were measured using the measurement kits (GOT II-HA Test Wako and GPT II Test Wako, supplied from Wako Pure Chemical Industries) with an automatic analyzer (Nitech ANALAYZER SUPER Z818).

[3] = test system: KKA^y/Ta Jcl male mice; experiment: Obesity and fatty liver model: body weight and liver triglyceride; assay type: in vivo, mouse; settings: for BODY WEIGHT (g) BEFORE ADMINISTRATION: 1 mg/kg group, baseline; for BODY WEIGHT (g) DIFFERENCE / BODY WEIGHT (g) TWO WEEKS / LIVER TRIGLYCERIDE: 1 mg/kg once a day for 2 weeks
Method: In the present Test Example, an obesity and fatty liver model was employed with reference to the method described in WO02/09757.
That is, KKA^y/Ta Jcl male mice at 10 weeks of age were used as obese mice (N=4 to 7). The test compound was dissolved or suspended in the aqueous solution of 1% HCO 60 (supplied from Nippon Chemicals). The aqueous solution of 1% HCO 60 (supplied from Nippon Chemicals) was used as the control. The consecutive administration was performed once a day for 2 weeks, and body weight was measured daily and compared with the body weight on the day before the administration. On the day after the final administration, the liver was removed, and a triglyceride concentration in liver tissue was measured using a measurement kit (Triglyceride Test Wako, supplied from Wako Pure Chemical Industries). The results are shown in the following Table 14 (Tables 14-1 to 14-3).

[4] = test system: rats dosed cholic acid; experiment: Lowering effect on bile acid concentrations in portal vein blood in rats dosed cholic acid; assay type: in vivo, rat
Outline: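 Fasted male SD (IGS) rats aged 7–9 weeks received oral cholic acid (200 mg/kg) plus test compound in water with 0.05% or 1% surfactant (n=6). Portal vein serum total bile acid measured 2 h post-dose; reduction rate (%) calculated against cholic acid-only controls set as 100%.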

[5] = biological target: T1, human IBAT (Homo sapiens, UniProt Q12908); experiment: In vitro assay using Cos 7 cells, transiently expressed human IBAT; assay type: cell-based; settings: [3H]-taurocholate 8 μM uptake, 37° C., 60 minutes
T1 sequence (Q12908 1-348): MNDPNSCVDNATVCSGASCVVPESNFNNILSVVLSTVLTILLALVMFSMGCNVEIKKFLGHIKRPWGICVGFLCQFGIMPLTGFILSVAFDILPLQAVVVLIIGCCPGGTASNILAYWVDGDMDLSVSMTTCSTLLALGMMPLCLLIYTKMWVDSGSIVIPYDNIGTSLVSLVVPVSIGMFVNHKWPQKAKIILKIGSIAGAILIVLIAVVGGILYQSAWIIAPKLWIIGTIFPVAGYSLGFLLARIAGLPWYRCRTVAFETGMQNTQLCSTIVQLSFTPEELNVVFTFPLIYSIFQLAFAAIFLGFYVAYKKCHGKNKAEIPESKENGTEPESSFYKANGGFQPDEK
Outline: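 Cos 7 cells transfected with human or rat IBAT cDNA were assayed one day later in Hanks buffer with 25 mM glucose and 10 mM HEPES (pH 7.4) containing compound. [^3H]-taurocholate (8 μM final) uptake ran 60 min at 37° C. Cells were washed with 1 mM taurocholate, lysed in NaOH, and counted by liquid scintillation.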

[6] = Table 14-2, control group 44.1 ± 0.6
[7] = Table 14-2, control group 0.7 ± 0.4
[8] = Table 14-2, control group 44.8 ± 0.9
[9] = Table 14-2, control group 103 ± 19
[10] = 0.1 mg/kg oral with cholic acid 200 mg/kg, portal vein serum total bile acid 2 hours after, control = 100%, surfactant HCO-60 (##)
[11] = Table 14-1, control group 42.8 ± 0.4
[12] = Table 14-1, control group 42.0 ± 0.7
[13] = Table 14-1, control group 94 ± 18
[14] = Table 14-1, control group −0.8 ± 0.5

Structure (SMILES) | IC50 [5] [nM] | LDL + VLDL REDUCTION RATE (%) IN CHOLESTEROL FED RAT MODEL (THERAPEUTIC MODEL) ([1]; 0.3 mg/kg per administration) [%] | AST [2] [IU/L] | ALT [2] [IU/L] | BODY WEIGHT (g) BEFORE ADMINISTRATION [3, 6] [g] | BODY WEIGHT (g) DIFFERENCE [3, 7] [g] | BODY WEIGHT (g) TWO WEEKS [3, 8] [g] | LIVER TRIGLYCERIDE [3, 9] [mg/g] | BILE ACID REDUCTION RATE (%) IN RAT MODEL WITH CHOLIC ACID LOADING [4, 10] [%] | LDL + VLDL REDUCTION RATE (%) IN CHOLESTEROL FED RAT MODEL (THERAPEUTIC MODEL) ([1]; 1 mg/kg per administration) [%] | BODY WEIGHT (g) BEFORE ADMINISTRATION [3, 11] [g] | BODY WEIGHT (g) TWO WEEKS [3, 12] [g] | LIVER TRIGLYCERIDE [3, 13] [mg/g] | BODY WEIGHT (g) DIFFERENCE [3, 14] [g] | BILE ACID REDUCTION RATE (%) IN RAT MODEL WITH CHOLIC ACID LOADING ([4]; 0.1 mg/kg oral, surfactant Tween 20 0.05%, cholic acid 200 mg/kg, portal vein blood 2 hours after administration) [%] | BILE ACID REDUCTION RATE (%) IN RAT MODEL WITH CHOLIC ACID LOADING ([4]; 0.1 mg/kg oral, surfactant HCO-60 0.1%, cholic acid 200 mg/kg, portal vein blood 2 hours after administration) [%]
C#CC[N+](C)(Cc1ccccc1)Cc1ccc(NC(=S)Nc2cccc(C3NC(CCCC)(CCCC)CS(=O)(=O)c4ccc(N(C)C)cc43)c2)cc1.[Br-] (racemic) [EXAMPLE 3448] | 37 | 20 | 134 ± 23 | 143 ± 79 | 44.1 ± 0.7 | -2.0 ± 0.7 | 42.1 ± 3.2 | 74 ± 8 | 25 | – | – | – | – | – | – | –
CCCCC1(CCCC)CS(=O)(=O)c2ccc(N(C)C)cc2C(c2cccc(NC(=S)Nc3ccc(C[N+]45CCC(c6ccccc6)(CC4)CC5)cc3)c2)N1.[Br-] (racemic) [EXAMPLE 3696] | 39 | 25 | 98 ± 23 | 145 ± 34 | 43.5 ± 1.3 | -1.3 ± 0.3 | 42.2 ± 2.2 | 76 ± 12 | 13 | – | – | – | – | – | – | –
CCCCC1(CCCC)CS(=O)(=O)c2ccc(N(C)C)cc2C(c2cccc(NC(=S)CCCCC[N+]34CCC(CC3)CC4)c2)N1.[Br-] (stereo not shown) [EXAMPLE 1, 1-{5-[3-(3,3-dibutyl-7-dimethylamino-1,1-dioxo-2,3,4,5-tetrahydro-1,4-benzothiazepine-5-yl)phenylthiocarbamoyl]pentyl}-1-azoniabicyclo[2.2.2]octane bromide] | – | 49 | – | – | – | – | – | – | – | 68.4 | 43.0 ± 0.5 | 41.0 ± 0.6 | 71 ± 13 | -1.9 ± 0.3 | 51 | –
CCCCC1(CCCC)CS(=O)(=O)c2ccc(N(C)C)cc2C(c2cccc(NC(=S)Nc3ccc(C[N+](C)(C)Cc4ccccc4)cc3)c2)N1.[Br-] (stereo not shown) [EXAMPLE 3440] | 37 | 36 | 125 ± 34 | 167 ± 93 | 44.6 ± 0.8 | -0.7 ± 1.0 | 43.9 ± 1.8 | 88 ± 6 | – | – | – | – | – | – | – | 26
CCCCC1(CCCC)CS(=O)(=O)c2ccc(N(C)C)cc2C(c2cccc(NC(=S)Nc3ccc(C[N+]4(Cc5ccccc5)CCC(O)CC4)cc3)c2)N1.[Br-] (stereo not shown) [EXAMPLE 3605] | 39 | 28 | 80 ± 34 | 121 ± 36 | – | – | – | – | 24 | – | 42.9 ± 1.1 | 41.4 ± 1.0 | 65 ± 7 | -1.5 ± 0.4 | – | –

Further lines, with some results ahead:

IC50 [5] [nM] | Structure (SMILES) | LDL + VLDL REDUCTION RATE (%) IN CHOLESTEROL FED RAT MODEL (THERAPEUTIC MODEL) ([1]; 0.3 mg/kg per administration) [%] | AST [2] [IU/L] | ALT [2] [IU/L] | BODY WEIGHT (g) BEFORE ADMINISTRATION [3, 6] [g] | BODY WEIGHT (g) DIFFERENCE [3, 7] [g] | BODY WEIGHT (g) TWO WEEKS [3, 8] [g] | LIVER TRIGLYCERIDE [3, 9] [mg/g] | BILE ACID REDUCTION RATE (%) IN RAT MODEL WITH CHOLIC ACID LOADING [4, 10] [%] | LDL + VLDL REDUCTION RATE (%) IN CHOLESTEROL FED RAT MODEL (THERAPEUTIC MODEL) ([1]; 1 mg/kg per administration) [%] | BODY WEIGHT (g) BEFORE ADMINISTRATION [3, 11] [g] | BODY WEIGHT (g) TWO WEEKS [3, 12] [g] | LIVER TRIGLYCERIDE [3, 13] [mg/g] | BODY WEIGHT (g) DIFFERENCE [3, 14] [g] | BILE ACID REDUCTION RATE (%) IN RAT MODEL WITH CHOLIC ACID LOADING ([4]; 0.1 mg/kg oral, surfactant Tween 20 0.05%, cholic acid 200 mg/kg, portal vein blood 2 hours after administration) [%] | BILE ACID REDUCTION RATE (%) IN RAT MODEL WITH CHOLIC ACID LOADING ([4]; 0.1 mg/kg oral, surfactant HCO-60 0.1%, cholic acid 200 mg/kg, portal vein blood 2 hours after administration) [%]
37 | CCCCC1(CCCC)CS(=O)(=O)c2ccc(N(C)C)cc2C(c2cccc(NC(=S)Nc3ccc(C[n+]4ccc(C(C)(C)C)cc4)cc3)c2)N1.[Br-] (stereo not shown) [EXAMPLE 3713] | 41 | 77 ± 37 | 118 ± 36 | 44.0 ± 1.1 | -2.5 ± 0.6 | 41.5 ± 2.4 | 59 ± 33 | 32 | – | – | – | – | – | – | –
45 | CCCCC1(CCCC)CS(=O)(=O)c2ccc(N(C)C)cc2C(c2cccc(NC(=S)Nc3ccc(C[n+]4cccc(CCCO)c4)cc3)c2)N1.[Br-] (stereo not shown) [EXAMPLE 3747] | 48 | 63 ± 86 | 102 ± 50 | 44.3 ± 0.8 | -2.1 ± 1.0 | 42.2 ± 1.8 | 47 ± 23 | 40 | – | – | – | – | – | – | –
41 | CCCCC1(CCCC)CS(=O)(=O)c2ccc(N(C)C)cc2C(c2cccc(NC(=S)Nc3ccc(C[n+]4cccc(CCC(=O)OC)c4)cc3)c2)N1.[Br-] (stereo not shown) [EXAMPLE 3752] | 50 | 69 ± 98 | 88 ± 45 | 43.8 ± 1.2 | -2.3 ± 0.9 | 41.5 ± 1.0 | 56 ± 23 | 42 | – | – | – | – | – | – | –
32 | CCCCC1(CCCC)CS(=O)(=O)c2ccc(N(C)C)cc2C(c2cccc(NC(=S)Nc3ccc(C[n+]4ccccc4CCC)cc3)c2)N1.[Br-] (stereo not shown) [EXAMPLE 5408] | 43 | 103 ± 45 | 149 ± 38 | 44.0 ± 0.9 | -1.8 ± 0.5 | 42.2 ± 1.6 | 70 ± 11 | 35 | – | – | – | – | – | – | –
